Values quoted from earlier work in PMC4130638, “Structure of a Stapled Peptide Antagonist Bound to Nutlin-Resistant Mdm2” (PLoS ONE, 2014).
Entries after “also recorded” stand apart in the source; their conditions may differ.

Experiments:
[1] = test system: Mdm2 Q24R (N-terminal domain); details: Q24R mutation in N-terminal domain of Mdm2
[2] = test system: Mdm2 M62A (N-terminal domain); details: M62A mutation in N-terminal domain of Mdm2

Substance: Nutlin-3a
- binding affinity for Mdm2 Q24R [1]: selectively reducing affinity for Nutlin but not p53
- binding affinity for Mdm2 M62A [2]: precludes binding of Nutlin, but not p53; also recorded: selectively reducing affinity for Nutlin but not p53; also recorded: significantly impairing binding
